Consider 17 compounds from patent publication US12590091B2, “1H-pyrrolo[3,2-C]pyridine and 1H-pyrrolo[2,3-C]pyridine derivatives as TLR9 inhibitors for the treatment of fibrosis” (BRISTOL-MYERS SQUIBB COMPANY, priority 2020, dated 2026).

pIC50: −log10 of the molar value. Some results are limits rather than exact numbers.

One assay deals with T1, human TLR9 (Homo sapiens, UniProt Q9NR96).
T1 construct: host or cells: HEK-Blue cells
T1 sequence (Q9NR96 26-1032): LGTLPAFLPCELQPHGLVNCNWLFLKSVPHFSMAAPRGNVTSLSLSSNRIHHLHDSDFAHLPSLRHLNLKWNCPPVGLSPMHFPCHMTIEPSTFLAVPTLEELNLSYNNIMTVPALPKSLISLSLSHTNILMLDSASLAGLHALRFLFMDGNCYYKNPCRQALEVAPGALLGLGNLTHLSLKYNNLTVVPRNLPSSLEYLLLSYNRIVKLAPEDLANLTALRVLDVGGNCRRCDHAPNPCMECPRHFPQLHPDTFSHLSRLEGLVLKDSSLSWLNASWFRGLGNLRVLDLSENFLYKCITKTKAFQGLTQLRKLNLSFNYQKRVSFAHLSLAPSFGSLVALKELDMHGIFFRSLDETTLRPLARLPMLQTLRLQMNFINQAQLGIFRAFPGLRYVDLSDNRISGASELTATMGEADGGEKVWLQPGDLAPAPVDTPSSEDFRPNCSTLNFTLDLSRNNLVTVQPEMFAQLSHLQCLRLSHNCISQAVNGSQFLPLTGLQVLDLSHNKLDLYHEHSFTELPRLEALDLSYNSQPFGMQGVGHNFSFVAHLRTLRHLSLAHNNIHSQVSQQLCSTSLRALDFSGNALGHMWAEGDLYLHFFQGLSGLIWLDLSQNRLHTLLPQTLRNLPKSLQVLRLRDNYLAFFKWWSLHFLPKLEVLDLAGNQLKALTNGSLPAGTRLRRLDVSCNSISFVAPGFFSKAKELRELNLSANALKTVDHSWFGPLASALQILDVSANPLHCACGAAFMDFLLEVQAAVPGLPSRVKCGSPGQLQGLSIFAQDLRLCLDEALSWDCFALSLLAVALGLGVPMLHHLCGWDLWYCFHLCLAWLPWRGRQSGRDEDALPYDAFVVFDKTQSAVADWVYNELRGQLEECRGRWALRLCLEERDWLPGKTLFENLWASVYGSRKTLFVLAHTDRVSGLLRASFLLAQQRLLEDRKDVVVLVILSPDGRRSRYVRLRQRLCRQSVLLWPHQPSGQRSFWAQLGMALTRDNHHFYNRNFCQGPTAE
Put plainly: TLR9 inhibition reporter assay (HEK-Blue cells, SEAP reporter). It is filed as cell-based. Particulars: HEK-Blue cells overexpressing human TLR9, stimulated with ODN2006 5 nM, 22 hour incubation. The method, boiled down: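 Compound dose-response (0.05 nM–50 μM final) on agonist-stimulated human TLR9 HEK-Blue cells, 25,000/well, incubated 22 h at 37 °C, 5% CO2. Readout was secreted alkaline phosphatase under an IFN-β minimal promoter with NF-κB/AP-1 sites; inhibition expressed relative to DMSO and reference-inhibitor controls.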
In general terms: In a reporter assay the amount or activity of a reporter protein is the signal.

In another assay the target is T2, human TLR7 (Homo sapiens, UniProt Q9NYK1).
T2 construct: host or cells: HEK-Blue cells
T2 sequence (Q9NYK1 27-1049): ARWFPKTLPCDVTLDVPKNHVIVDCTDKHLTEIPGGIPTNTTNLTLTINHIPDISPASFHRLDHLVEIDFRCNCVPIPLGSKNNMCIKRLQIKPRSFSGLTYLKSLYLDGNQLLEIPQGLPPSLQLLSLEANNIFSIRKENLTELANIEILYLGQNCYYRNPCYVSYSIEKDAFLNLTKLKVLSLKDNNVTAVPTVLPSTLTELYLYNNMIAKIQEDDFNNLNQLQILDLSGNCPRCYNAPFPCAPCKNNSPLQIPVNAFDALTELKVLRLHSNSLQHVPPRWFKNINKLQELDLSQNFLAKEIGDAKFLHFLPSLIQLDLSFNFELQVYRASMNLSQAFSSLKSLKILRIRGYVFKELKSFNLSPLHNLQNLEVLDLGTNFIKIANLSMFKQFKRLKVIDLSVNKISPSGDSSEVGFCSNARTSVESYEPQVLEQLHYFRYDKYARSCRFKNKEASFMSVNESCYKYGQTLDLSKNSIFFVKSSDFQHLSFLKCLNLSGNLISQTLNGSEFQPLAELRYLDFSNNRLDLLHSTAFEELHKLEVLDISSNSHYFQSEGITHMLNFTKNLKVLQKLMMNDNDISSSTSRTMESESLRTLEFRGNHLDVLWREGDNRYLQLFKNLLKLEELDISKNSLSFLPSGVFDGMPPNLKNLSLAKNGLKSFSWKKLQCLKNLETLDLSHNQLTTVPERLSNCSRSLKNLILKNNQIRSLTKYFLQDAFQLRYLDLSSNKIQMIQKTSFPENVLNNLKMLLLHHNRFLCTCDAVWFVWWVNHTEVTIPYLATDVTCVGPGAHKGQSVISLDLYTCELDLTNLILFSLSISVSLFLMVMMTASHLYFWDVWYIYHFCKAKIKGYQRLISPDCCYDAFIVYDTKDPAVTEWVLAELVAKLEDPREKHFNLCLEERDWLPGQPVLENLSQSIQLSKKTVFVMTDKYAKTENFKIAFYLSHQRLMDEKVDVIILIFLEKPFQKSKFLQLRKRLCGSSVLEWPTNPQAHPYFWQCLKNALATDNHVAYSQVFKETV
Nature of the assay: TLR7 inhibition reporter assay (HEK-Blue cells, SEAP reporter). It counts as cell-based. Particulars: HEK-Blue cells overexpressing human TLR7, stimulated with gardiquimod 7.5 μM, 22 hour incubation. The gist of the method:
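HEK-Blue cells overexpressing human TLR7, TLR8 or TLR9 carry a SEAP reporter driven by NF-κB/AP-1 sites. Compounds (0.05 nM–50 μM) were preincubated 30 min at room temperature, then cells were stimulated with gardiquimod 7.5 μM (TLR7), R848 15.9 μM (TLR8) or ODN2006 5 nM (TLR9) for 22 h at 37 °C.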

On to `COc1ccc(-c2c(C)n(C)c3cnc(-c4ccc(N5CCN(C(C)C)CC5)cc4)cc23)cc1OC` [Example 32, 3-(3,4-dimethoxyphenyl)-5-(4-(4-isopropylpiperazin-1-yl)phenyl)-1,2-dimethyl-1H-pyrrolo[2,3-c]pyridine], for which the pIC50 (commonly −log10 of the IC50, conventionally taken in molar units) on human TLR9 was 6.77; on human TLR7 it was 5.85.

For `COc1ccc(-c2c(C)n(C)c3cnc(-c4ccc(N5CCN(CCC(C)(C)O)CC5)cc4)cc23)cc1OC` [Example 33, 4-(4-(4-(3-(3,4-dimethoxyphenyl)-1,2-dimethyl-1H-pyrrolo[2,3-c]pyridin-5-yl)phenyl)piperazin-1-yl)-2-methylbutan-2-ol], the negative-log IC50 (pIC50) against human TLR9 was 7.57; against human TLR7, 5.49.

Take `Cc1nc(-c2ccc(N3CCN(CC(C)C)CC3)cc2)cc2c1cc(-c1ccc(S(C)(=O)=O)cc1)n2C` [Example 34, 6-(4-(4-isobutylpiperazin-1-yl)phenyl)-1,4-dimethyl-2-(4-(methylsulfonyl)phenyl)-1H-pyrrolo[3,2-c]pyridine]: the negative-log IC50 (pIC50) against human TLR9 was 8.00; against human TLR7, 5.66.

In the case of `Cc1nc(-c2ccc(N3CCN(C4CCOCC4)CC3)cc2)cc2c1cc(-c1ccc(S(C)(=O)=O)cc1)n2C` [Example 35, 1,4-dimethyl-2-(4-(methylsulfonyl)phenyl)-6-(4-(4-(tetrahydro-2H-pyran-4-yl)piperazin-1-yl)phenyl)-1H-pyrrolo[3,2-c]pyridine], the negative logarithm of the IC50 (pIC50) at human TLR9 was 6.15; against human TLR7, 4.77.

On to `Cc1nc(-c2ccc(N3CCN(CCCO)CC3)cc2)cc2c1cc(-c1ccc(S(C)(=O)=O)cc1)n2C` [Example 36, 3-(4-(4-(1,4-dimethyl-2-(4-(methylsulfonyl)phenyl)-1H-pyrrolo[3,2-c]pyridin-6-yl)phenyl)piperazin-1-yl)propan-1-ol], for which the pIC50 on human TLR9 was 7.23; at human TLR7, 5.33.

On to `Cc1nc(-c2ccc(N3CCN(C4CCOC4)CC3)cc2)cc2c1cc(-c1ccc(S(C)(=O)=O)cc1)n2C` (stereo not shown) [Example 37, 1,4-dimethyl-2-(4-(methylsulfonyl)phenyl)-6-(4-(4-(tetrahydrofuran-3-yl)piperazin-1-yl)phenyl)-1H-pyrrolo[3,2-c]pyridine], for which the values for the pIC50 against human TLR9 and at human TLR7 were 7.24 and 4.93, respectively.

In the case of `COCCN1CCN(c2ccc(-c3cc4c(cc(-c5ccc(S(C)(=O)=O)cc5)n4C)c(C)n3)cc2)CC1` [Example 38, 6-(4-(4-(2-methoxyethyl)piperazin-1-yl)phenyl)-1,4-dimethyl-2-(4-(methylsulfonyl)phenyl)-1H-pyrrolo[3,2-c]pyridine], the pIC50 was 7.25 on human TLR9 and 5.59 on human TLR7.

In the case of `Cc1nc(-c2ccc(C3CCN(CCCO)CC3)cc2)cc2c1cc(-c1ccc(S(C)(=O)=O)cc1)n2C` [Example 41, 3-(4-(4-(1,4-Dimethyl-2-(4-(methylsulfonyl)phenyl)-1H-pyrrolo[3,2-c]pyridin-6-yl)phenyl)piperidin-1-yl)propan-1-ol], the pIC50 is 6.63 against human TLR9 and 5.31 against human TLR7.

As to `Cc1nc(-c2cc(F)c(N3CCNCC3)cc2F)cc2c1cc(-c1ccc(S(C)(=O)=O)cc1)n2C` [Example 43, 6-(2,5-Difluoro-4-(piperazin-1-yl)phenyl)-1,4-dimethyl-2-(4-(methylsulfonyl)phenyl)-1H-pyrrolo[3,2-c]pyridine], the values for the pIC50 at human TLR9 and against human TLR7 were 7.10 and 5.21, respectively.

Consider `Cc1nc(-c2ccc(CN3CCN(CC(C)(C)O)CC3)cc2)cc2c1cc(-c1ccc(S(C)(=O)=O)cc1)n2C` [Example 44, 1-(4-(4-(1,4-Dimethyl-2-(4-(methylsulfonyl)phenyl)-1H-pyrrolo[3,2-c]pyridin-6-yl)benzyl)piperazin-1-yl)-2-methylpropan-2-ol], for which the pIC50 against human TLR9 is 7.02; against human TLR7, 6.19.

In the case of `Cc1nc(-c2ccc(N3CCN(CCCO)CC3)cc2)cc2c1cc(-c1ccc(S(=O)(=O)C3CC3)cc1)n2C` [Example 47, 3-(4-(4-(2-(4-(cyclopropylsulfonyl)phenyl)-1,4-dimethyl-1H-pyrrolo[3,2-c]pyridin-6-yl)phenyl)piperazin-1-yl)propan-1-ol], the pIC50 on human TLR9 was 7.11; on human TLR7 it was 4.83.

Take `COCCN1CCN(c2ccc(-c3cc4c(cc(-c5ccc(S(=O)(=O)C6CC6)cc5)n4C)c(C)n3)cc2)CC1` [Example 48, 2-(4-(cyclopropylsulfonyl)phenyl)-6-(4-(4-(2-methoxyethyl)piperazin-1-yl)phenyl)-1,4-dimethyl-1H-pyrrolo[3,2-c]pyridine]: the pIC50 against human TLR9 was 6.41; at human TLR7, 5.68.

As to `CC(C)CN1CCN(c2ccc(-c3cc4c(cn3)cc(-c3ccc(S(C)(=O)=O)cc3)n4C)cc2)CC1` [Example 53, 6-(4-(4-isobutylpiperazin-1-yl)phenyl)-1-methyl-2-(4-(methylsulfonyl)phenyl)-1H-pyrrolo[3,2-c]pyridine], the results for the pIC50 on human TLR9 and at human TLR7 were 7.68 and less than 4.30, respectively.

As for `CC(C)N1CCN(c2ccc(-c3cc4c(cn3)cc(-c3ccc(S(C)(=O)=O)cc3)n4C)cc2)CC1` [Example 54, 6-(4-(4-isopropylpiperazin-1-yl)phenyl)-1-methyl-2-(4-(methylsulfonyl)phenyl)-1H-pyrrolo[3,2-c]pyridine], the values for the pIC50 against human TLR9 and against human TLR7 were 7.38 and 5.34, respectively.

With `Cc1nc(-c2ccc(N3CCN(CCCO)CC3)c(F)c2F)cc2c1cc(-c1ccc(S(C)(=O)=O)cc1)n2C` [Example 55, 3-(4-(4-(1,4-dimethyl-2-(4-(methylsulfonyl)phenyl)-1H-pyrrolo[3,2-c]pyridin-6-yl)-2,3-difluorophenyl)piperazin-1-yl)propan-1-ol], the figures for the pIC50 at human TLR9 and at human TLR7 were 5.55 and 5.24, respectively.

Regarding `Cc1nc(-c2cc(F)c(N3CCN(CCCO)CC3)cc2F)cc2c1cc(-c1ccc(S(C)(=O)=O)cc1)n2C` [Example 56, 3-(4-(4-(1,4-dimethyl-2-(4-(methylsulfonyl)phenyl)-1H-pyrrolo[3,2-c]pyridin-6-yl)-2,5-difluorophenyl)piperazin-1-yl)propan-1-ol], the values for the pIC50 against human TLR9 and against human TLR7 were 6.57 and 4.73, respectively.

With `Cc1nc(-c2ccc(CN3CCN(CC(C)C)CC3)cc2)cc2c1cc(-c1ccc(S(C)(=O)=O)cc1)n2C` [Example 57, 6-(4-((4-isobutylpiperazin-1-yl)methyl)phenyl)-1,4-dimethyl-2-(4-(methylsulfonyl)phenyl)-1H-pyrrolo[3,2-c]pyridine], the negative logarithm of the IC50 (pIC50) is 7.34 on human TLR9 and 5.22 on human TLR7.
